# Molecular target: Axl (Homo sapiens (Human), UniProt P30530)
# Assay: Phospho-Akt in-cell Western assay (Axl-antibody cross-linking stimulation)
# Format: cell-based
# Conditions: inhibition of Axl activity, Hela cells, phospho-Akt readout; Table 1, formula (Ia1)
# Description: The working solution: dilute the stock 1:20 with PBS immediately before use. • 10% SDS: working solution: 5% SDS (sodium dodecylsulfate), diluted in PBS Methods: Day 1:
# A 96 well TC (tissue culture treated) plate was coated with 10 μg/mL poly-L-Lysine at 37° C. for 30 min, washed twice with PBS, and air-dried for 5 minutes before cells were added. Hela cells were seeded at 10,000 cells/well and the cells were starved in 100 μL starvation medium containing Axl/Fc for 24 hrs.
# The cells were pre-treated with test compounds by adding 100 μL of 2× test compound to the starvation medium on the cells. The cells were incubated at 37° C. for 1 hr before stimulation.
# The resulting mix was warmed to 37° C. 50 μL of 5× Axl 1st/2nd of antibody cluster was added to the cells and the cells were incubated at 37° C. for 5 min.
# After 5 minutes stimulation, the plate was flicked to remove medium and the plate was tapped onto paper towels. Formaldehyde (4.0% in PBS, 100 μL) was added to fix the cells and the cells were incubated at ambient temperature for 20 min without shaking.
# The cells were washed with a plate washer buffer to remove the formaldehyde solution. The plate was flicked to removed excess wash buffer and tapped onto paper towels. Quenching buffer (100 μL) was added to each well and the cells were incubated at ambient temperature for 20 minutes without shaking.
# The cells were washed with a plate washer buffer to remove the quenching buffer. Blocking buffer (100 μL) was added and the cells were incubated at ambient temperature for at least an hour with gentle shaking.
# The cells were washed with a plate washer buffer and diluted primary antibody (50 μL) was added to each well (blocking buffer was added to the negative control wells instead). The plates were incubated overnight at 4° C. with gentle shaking.
# The wash buffer was removed, diluted secondary antibody (100 μL) was added, and the cells were incubated at ambient temperature for 1 hour with gentle shaking. During the incubation, the chemiluminescent reagent was brought to ambient temperature.
# The secondary antibody was removed by washing the cells 1× with wash buffer, 1× with PBS by plate washer. The PBS was removed from the plate and the chemiluminescent reagent (80 μL: 40 μL A and 40 μL B) was added to each well at ambient temperature.
# The resulting chemiluminescence was read with a Luminomitor within 10 minutes to minimize changes in signal intensity. […] The plate was tapped onto paper towels to remove excess liquid from wells and air-dried at ambient temperature for 5 minutes.
# Crystal Violet working solution (60 μL) was added to each well and the cells were incubated at ambient temperature for 30 min. The crystal violet solution was removed, and the wells were rinsed with PBS, then washed 3× with PBS (200 μL) for 5 minutes each.
# 5% SDS solution (70 μL) was added to each well and the cells were incubated on a shaker for 30 min at ambient temperature.
# This relative cell number was then used to normalize each luminescence reading. […]
# Axl, sequence (P30530 26-894): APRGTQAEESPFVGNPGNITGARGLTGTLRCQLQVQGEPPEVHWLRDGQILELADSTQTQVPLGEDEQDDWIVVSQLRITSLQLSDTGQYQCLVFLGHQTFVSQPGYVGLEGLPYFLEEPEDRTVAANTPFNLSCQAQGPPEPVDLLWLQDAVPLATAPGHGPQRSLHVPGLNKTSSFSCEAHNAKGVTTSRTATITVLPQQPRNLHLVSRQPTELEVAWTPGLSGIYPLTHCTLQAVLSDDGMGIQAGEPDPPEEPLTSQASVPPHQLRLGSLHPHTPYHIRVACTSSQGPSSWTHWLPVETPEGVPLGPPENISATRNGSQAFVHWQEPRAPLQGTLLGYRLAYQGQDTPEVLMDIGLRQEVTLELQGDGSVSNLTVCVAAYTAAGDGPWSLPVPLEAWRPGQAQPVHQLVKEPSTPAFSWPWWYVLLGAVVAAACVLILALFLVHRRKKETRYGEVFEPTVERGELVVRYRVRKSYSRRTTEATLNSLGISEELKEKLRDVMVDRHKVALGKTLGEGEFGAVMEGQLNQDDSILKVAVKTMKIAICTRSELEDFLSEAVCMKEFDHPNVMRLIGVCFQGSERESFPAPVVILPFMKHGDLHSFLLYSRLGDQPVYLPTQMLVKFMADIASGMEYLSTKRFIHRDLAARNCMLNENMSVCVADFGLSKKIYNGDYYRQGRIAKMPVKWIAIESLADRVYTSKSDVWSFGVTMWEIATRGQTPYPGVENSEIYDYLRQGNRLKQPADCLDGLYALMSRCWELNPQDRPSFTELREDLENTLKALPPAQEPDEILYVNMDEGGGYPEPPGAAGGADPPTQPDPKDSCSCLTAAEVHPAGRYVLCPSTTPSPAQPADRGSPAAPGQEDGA
row,IC50 [µM],SMILES
1,10 to 20,"CN(C)c1cccc(-n2nc(Nc3ccc(OCCN4CCCCC4)cc3)nc2N)n1 [Compound 36, 1-(6-(dimethylamino)pyridin-2-yl)-N^3-(4-(2-(piperidin-1-yl)ethoxy)phenyl)-1H-1,2,4-triazole-3,5-diamine]"
2,< 1,"Nc1nc(Nc2ccc(OCCN3CCCC3)cc2)nn1-c1nc(Cl)nc2ccccc12 [Compound 37, 1-(2-chloroquinazolin-4-yl)-N^3-(4-(2-(pyrrolidin-1-yl)ethoxy)phenyl)-1H-1,2,4-triazole-3,5-diamine]"
3,1 to 10,"Nc1nc(Nc2ccc(OCCN3CCCC3)cc2)nn1-c1nc(N2CCOCC2)nc2ccccc12 [Compound 38, 1-(2-morpholinoquinazolin-4-yl)-N^3-(4-(2-(pyrrolidin-1-yl)ethoxy)phenyl)-1H-1,2,4-triazole-3,5-diamine]"
4,< 1,"Nc1nc(Nc2ccc(OCCN3CCCC3)c(Cl)c2)nn1-c1nc2ccccc2s1 [Compound 39, 1-(benzo[d]thiazol-2-yl)-N^3-(3-chloro-4-(2-(pyrrolidin-1-yl)ethoxy)phenyl)-1H-1,2,4-triazole-3,5-diamine]"
5,< 1,"Cn1c(-n2nc(Nc3ccc(OCCN4CCCC4)c(Cl)c3)nc2N)nc2ccccc21 [Compound 40, N^3-(3-chloro-4-(2-(pyrrolidin-1-yl)ethoxy)phenyl)-1-(1-methyl-1H-benzo[d]imidazol-2-yl)-1H-1,2,4-triazole-3,5-diamine]"
6,< 1,"Nc1nc(Nc2ccc(OCCN3CCCC3)cc2)nn1-c1ccc2ccccc2n1 [Compound 41, N^3-(4-(2-(pyrrolidin-1-yl)ethoxy)phenyl)-1-(quinolin-2-yl)-1H-1,2,4-triazole-3,5-diamine]"
7,> 20,"Cc1cc(O)nc(-n2nc(Nc3ccc(OCCN4CCCC4)cc3)nc2N)n1 [Compound 42, 2-(5-amino-3-(4-(2-(pyrrolidin-1-yl)ethoxy)phenylamino)-1H-1,2,4-triazol-1-yl)-6-methylpyrimidin-4-ol]"
8,< 1,"COc1cc2nc(Cl)nc(-n3nc(Nc4ccc(OCCN5CCCC5)cc4)nc3N)c2cc1OC [Compound 44, 1-(2-chloro-6,7-dimethoxyquinazolin-4-yl)-N^3-(4-(2-(pyrrolidin-1-yl)ethoxy)phenyl)-1H-1,2,4-triazole-3,5-diamine]"
9,< 1,"COc1cc2ncnc(-n3nc(Nc4ccc(OCCN5CCCC5)cc4)nc3N)c2cc1OC [Compound 45, 1-(6,7-dimethoxyquinazolin-4-yl)-N^3-(4-(2-(pyrrolidin-1-yl)ethoxy)phenyl)-1H-1,2,4-triazole-3,5-diamine]"
10,< 1,"CC1CCC(C)N1CCOc1ccc(Nc2nc(N)n(-c3cnc4ccccc4n3)n2)cc1 (centres unmarked) [Compound 46, N^3-(4-(2-(2,5-dimethylpyrrolidin-1-yl)ethoxy)phenyl)-1-(quinoxalin-2-yl)-1H-1,2,4-triazole-3,5-diamine]"
11,> 20,"Nc1nc(Nc2ccc(OCCN3CCCC3)cc2)nn1-c1ncccn1 [Compound 47, 1-(pyrimidin-2-yl)-N^3-(4-(2-(pyrrolidin-1-yl)ethoxy)phenyl)-1H-1,2,4-triazole-3,5-diamine]"
12,< 1,"Nc1nc(Nc2ccc(OCCN3CCCC3)cc2)nn1-c1nc(Cl)nc2c1CCC2 [Compound 49, 1-(2-chloro-6,7-dihydro-5H-cyclopenta[d]pyrimidin-4-yl)-N^3-(4-(2-(pyrrolidin-1-yl)ethoxy)phenyl)-1H-1,2,4-triazole-3,5-diamine]"
13,< 1,"Nc1nc(Nc2ccc(OCCN3CCCC3)cc2)nn1-c1nccc2ccccc12 [Compound 50, 1-(isoquinolin-1-yl)-N^3-(4-(2-(pyrrolidin-1-yl)ethoxy)phenyl)-1H-1,2,4-triazole-3,5-diamine]"
14,< 1,"Nc1nc(Nc2ccc(OCCN3CCCC3)cc2)nn1-c1ncnc2sccc12 [Compound 51, N^3-(4-(2-(pyrrolidin-1-yl)ethoxy)phenyl)-1-(thieno[2,3-d]pyrimidin-4-yl)-1H-1,2,4-triazole-3,5-diamine]"
15,< 1,"Nc1nc(Nc2ccc(OCCN3CCCC3)cc2)nn1-c1ncnc2cc(-c3ccccc3)sc12 [Compound 52, 1-(6-phenylthieno[3,2-d]pyrimidin-4-yl)-N^3-(4-(2-(pyrrolidin-1-yl)ethoxy)phenyl)-1H-1,2,4-triaozle-3,5-diamine]"
16,< 1,"Nc1nc(Nc2ccc(OCCN3CCCC3)cc2)nn1-c1nc(C(F)(F)F)nc2ccccc12 [Compound 53, N^3-(4-(2-(pyrrolidin-1-yl)ethoxy)phenyl)-1-(2-(trifluoromethyl)quinazolin-4-yl)-1H-1,2,4-triazole-3,5-diamine]"
17,< 1,"Nc1nc(Nc2ccc(OCCN3CCCC3)cc2)nn1-c1ncnc2ccsc12 [Compound 54, N^3-(4-(2-(pyrrolidin-1-yl)ethoxy)phenyl)-1-(thieno[3,2-d]pyrimidin-4-yl)-1H-1,2,4-triazole-3,5-diamine]"
18,< 1,"Nc1nc(Nc2ccc(OCCN3CCCC3)c(F)c2)nn1-c1cnc2ccccc2n1 [Compound 55, N^3-(3-fluoro-4-(2-(pyrrolidin-1-yl)ethoxy)phenyl)-1-(quinoxalin-2-yl)-1H-1,2,4-triazole-3,5-diamine]"
19,< 1,"Nc1nc(Nc2ccc(OCCN3CCCC3)c(F)c2)nn1-c1nc2ccccc2s1 [Compound 56, 1-(benzo[d]thiazol-2-yl)-N^3-(3-fluoro-4-(2-(pyrrolidin-1-yl)ethoxy)phenyl)-1H-1,2,4-triazole-3,5-diamine]"
20,< 1,"Nc1nc(Nc2ccc(OCCN3CCCC3)c(F)c2)nn1-c1ccccn1 [Compound 57, N^3-(3-fluoro-4-(2-(pyrrolidin-1-yl)ethoxy)phenyl)-1-(pyridin-2-yl)-1H-1,2,4-triazole-3,5-diamine]"
21,< 1,"Nc1nc(Nc2ccc(OCCN3CCCC3)c(F)c2)nn1-c1nccc2ccccc12 [Compound 58, N^3-(3-fluroo-4-(2-(pyrrolidin-1-yl)ethoxy)phenyl)-1-(isoquinolin-1-yl)-1H-1,2,4-triaozle-3,5-diamine]"
22,< 1,"Nc1nc(Nc2ccc(OCCN3CCCC3)cc2)nn1-c1ncnc2sc3c(c12)CCCC3 [Compound 61, 1-(5,6,7,8-tetrahydrobenzo[4.,5]thieno[2,3-d]pyrimidin-4-yl)-N^3-(4-(2-(pyrrolidin-1-yl)ethoxy)phenyl)-1H-1,2,4-triazole-3,5-diamine]"
23,< 1,"Nc1nc(Nc2ccc(OCCN3CCCC3)c(Cl)c2)nn1-c1nccc2ccccc12 [Compound 62, N^3-(3-chloro-4-(2-(pyrrolidin-1-yl)ethoxy)phenyl)-1-(isoquinolin-1-yl)-1H-1,2,4-triazole-3,5-diamine]"
24,< 1,"Nc1nc(Nc2ccc(OCCN3CCCC3)cc2)nn1-c1nccc2ccsc12 [Compound 64, N^3-(4-(2-(pyrrolidin-1-yl)ethoxy)phenyl)-1-(thieno[2,3-c]pyridin-7-yl)-1H-1,2,4-triazole-3,5-diamine]"
25,< 1,"Nc1nc(Nc2ccc(OCCN3CCCC3)cc2)nn1-c1ncnc2sc3c(c12)CCC3 [Compound 66, 1-(6,7-dihydro-5H-cyclopenta[4,5]thieno[2,3-d]pyrimidin-4-yl)-N^3-(4-(2-(pyrrolidin-1-yl)ethoxy)phenyl)-1H-1,2,4-triazole-3,5-diamine]"
26,< 1,"Nc1nc(Nc2ccc(OCCN3CCCC3)c(Cl)c2)nn1-c1ncnc2sc3c(c12)CCCC3 [Compound 67, N^3-(3-chloro-4-(2-(pyrrolidin-1-yl)ethoxy)phenyl)-1-(5,6,7,8-tetrahydrobenzo[4,5]thieno[2,3-d]pyrimidin-4-yl)-1H-1,2,4-triazole-3,5-diamine]"
27,< 1,"Nc1nc(Nc2ccc(OCCN3CCCC3)c(F)c2)nn1-c1ncnc2sc3c(c12)CCCC3 [Compound 68, N^3-(3-fluoro-4-(2-(pyrrolidin-1-yl)ethoxy)phenyl)-1-(5,6,7,8-tetrahydrobenzo[4,5]thieno[2,3-d]pyrimidin-4-yl)-1H-1,2,4-triazole-3,5-diamine]"
28,< 1,"Nc1nc(Nc2ccc(OCCN3CCCC3)cc2)nn1-c1nccc2occc12 [Compound 69, 1-(furo[3,2-c]pyridin-4-yl)-N^3-(4-(2-(pyrrolidin-1-yl)ethoxy)phenyl)-1H-1,2,4-triazole-3,5-diamine]"
29,< 1,"Nc1nc(Nc2ccc(OCCN3CCCC3)cc2)nn1-c1cc2c(nn1)-c1ccccc1CC2 [Compound 75, 1-(5,6-dihydrobenzo[h]cinnolin-3-yl)-N^3-(4-(2-(pyrrolidin-1-yl)ethoxy)phenyl)-1H-1,2,4-triazole-3,5-diamine]"
